Source: paper PMC11129186, “New Improved cGMP Analogues to Target Rod Photoreceptor Degeneration” (Journal of Medicinal Chemistry, 2024)
Several values for one entry are separate records, joined by “and”; a condition that tells them apart may be missing. Equal values may be shown once. Read-outs that look alike come from different tables or passages of the source.

Assays:
[1] = molecular target: PDE6 purified enzyme; set-up: method as in PMID 16123402; conditions: cited from earlier work
[2] = tested on: primary photoreceptor cells derived from rd1 mutant mice; assay: Cell death TUNEL assay in primary photoreceptors; assay type: cell-based, mouse; conditions: for neuroprotective effect, cell death (TUNEL): 50 μM added at day 10 of differentiation, read at day 11
Source text: To address this possible limitation of the RP model, we tested the CN03 analogues in another RP in vitro cellular model, previously validated for the analysis of cGMP analogues.[10] This model is based on the primary cell culture and differentiation of cells derived from rd1 mutant eyes. The rd1 mouse is one of the best characterized murine models of RP. It carries a mutation in the Phosphodiesterase 6b (Pde6b) gene. Lack of PDE6 function causes high intracellular levels of cGMP in rod photoreceptor cells.[26],[9] […] CN03-Na^+, SP-CN03, and dithio-CN03 were administered to the culture of rd1 mutant cells at a concentration of 50 μM at day 10 of differentiation. The concentration of the compounds and the time of treatment were chosen based on the previously published study in which cGMP inhibitory analogues were tested in this type of primary photoreceptors.[10] Cell death was then analyzed by the TUNEL assay at day 11 of in vitro differentiation.
rd1 mutant mice were purchased from Charles River Italy. The protocol was approved by the Ethical Committee of the University of Modena and Reggio Emilia and by the Italian Ministero della Salute (150/2021-PR). Primary neurospheres were derived from the eyes of rd1 mutant mice, as previously reported.[32] Retinal stem cells in neurospheres were differentiated into photoreceptors, as previously reported.[10]rd1 mutant photoreceptor cells underwent spontaneous cell death after differentiation for 11 days. At day 10, 50 μM of either CN03-Na^+ or SP-CN03 or dithio-CN03 were added to the cells in culture and cell death was assessed 1 day later (day 11 of differentiation) by TUNEL assay (see above for detailed procedure).

[3] = Thermal analysis (DSC and TG); assay type: physicochemical; conditions: crystal modification I; scan 10 °C/min
Method: Finally, we performed thermal analyses on crystal modification I by using differential scanning calorimetry (DSC) and thermogravimetry (TG), both of which confirmed a behavior analogous to that of CN03. There were no observable melting points. Instead, there was only a sharp exothermic event on DSC at 170 °C associated with significant mass loss on TG, which we interpreted as a thermal decomposition of the compound (Figure 1B). It should be noted that decomposition peaks on DSC and TG are not indicative of physical stability (e.g., melting point, and solubility). Since the material was crystalline, it was considered to own a melting point at a higher temperature than this decomposition.
DSC analyses were carried out on a Mettler DSC822e, equipped with a Thermo Haake EK45/MT cooler. The samples were weighed into a 40 μL Al-cup, which was then closed with a pierced lid. The sample was scanned from 25 to 300 °C, with a scan rate of 10 °C/min.
TG was performed on a Mettler TGA/SDTA 851e, equipped with a Haake C50P cooler. Alternatively, thermogravimetric and DSC analyses were carried out simultaneously in a Mettler Toledo TGA/DSC 3+. The samples were weighed into a 100 μL Al-cup, and this was flushed with dry nitrogen gas during the analysis. The sample was scanned from 25 to 300 °C, with a scan rate of 10 °C/min.

[4] = tested on: 661W-A11 cells stressed with zaprinast; assay: Dose-response curves of cell viability (MTT) under zaprinast stress; assay type: cell-based, mouse; conditions: for EC50: read-out: EC50 of cell viability
Method: For this analysis, we used the 661W-A11 cells stressed with zaprinast and exposed them to scaling concentrations of either dithio-CN03 or SP-CN03 or CN03-Na^+. The effects were evaluated by the cell viability MTT assay (Figure 5). […] Nevertheless, CN03-Na^+ and SP-CN03 reached up to 70–80% cell viability, while dithio-CN03 could protect rod photoreceptors to almost 100% cell viability at the highest doses (Figure 5). Although dithio-CN03 was considered more hydrophobic, and its entrance in the cells could have been facilitated by this feature, the calculated EC50 was nonetheless similar to more hydrophilic analogues.
661W-A11 cells were seeded in 96-well plates at a density of 6000 cells/well, and the following day they were pretreated with scaling concentrations of either CN03-Na^+ or SP-CN03 or dithio-CN03 for 2 h and then stressed with zaprinast 200 μM in the presence of the compounds for 48 h. Cell viability was assessed by MTT assay (see above for detailed procedure). OD was measured at 570 nm. Data were plotted and EC50 calculated using GraphPad Prism version 7.

[5] = tested on: 661W-A11 cells; assay: Toxicity assay, MTT viability of unstressed cells; assay type: cell-based, mouse; conditions: 1 μM to 1 mM, 48 h; dithio-CN03 in DMSO, compared to DMSO vehicle
Source text: With the aim of developing a new treatment for RP, we evaluated possible toxic effects of the cGMP analogues on a retinal cell line. The target of the treatment for RP is rod photoreceptors, the cells that die due to increased intracellular levels of cGMP during the progression of retinal degeneration. […] Furthermore, this cell line can be stressed with zaprinast, a phosphodiesterase 6 (PDE6) inhibitor, to increase intracellular cGMP and activate cell death pathways, as found in the RP mutant retina. […] A toxicity test was set up by exposing 661W-A11 cells to increasing doses of the four new TEA salts of CN03: CN03, SP-CN03, oxo-CN03, and dithio-CN03 (Figure 2). Viability of the cells was assessed by an MTT assay that measures cell metabolic activity. […]
661W-A11 cells were seeded in 96-well plates at a density of 6000 cells/well, and the following day they were treated with scaling concentrations of either CN03-Na^+, CN03, SP-CN03, oxo-CN03, or dithio-CN03 for 48 h. […] Cell viability was assessed with MTT (3-(4,5-dimethylthiazol-2-yl)-2,5-diphenyl tetrazolium bromide, Sigma). […] The crystals were shaken for 10 min to dissolve and the optical density (OD) was measured at a wavelength of 570 nm.

[6] = tested on: 661W-A11 cells stressed with zaprinast; assay: Cell viability MTT assay in cells stressed with zaprinast; assay type: cell-based, mouse; conditions: 50 μM compound, 200 μM zaprinast for 48 h
Method: The neuroprotective activity of the newly developed compounds was then evaluated in 661W-A11 cells stressed with zaprinast. Viability was assessed by an MTT assay.
(§1) 661W-A11 cells were seeded in 96-well plates at a density of 6000 cells/well or in 24-well plates at a density of 20,000 cells/well. Twenty-four h after seeding, cells were pretreated with 50 μM of either CN03-Na^+ or CN03 or SP-CN03 or oxo-CN03 or dithio-CN03 for 2 h, followed by 200 μM zaprinast treatment for 48 h in the presence of the compounds. Control groups were treated with an equal volume of vehicle, H2O or DMSO.
661W-A11 cells were cultured on 96-well plates at a density of 6000 cells/well. After compound treatments, the culture medium was replaced with medium containing 1 mg/mL of MTT (Sigma) and cells were cultured for 90 min at 37 °C. Viability was assessed by MTT assay (see above for detailed procedure). OD was measured at 570 nm.

[7] = Aqueous solubility at room temperature (phase solubility, HPLC); assay type: physicochemical
Method: Physicochemical properties of dithio-CN03 were characterized and compared to CN03. […] Salt forms of CN03, for example, were prepared varying in aqueous solubility as low as 0.01 mg/mL.[12] To facilitate future development of reactive crystallizations toward other salt forms, a temperature-dependent solubility was also measured between 20 and 75 °C. The resulting solubility curve can be found in the Supporting Information (Figure S38).
The solubility of dithio-CN03 was measured at room temperature and in quadruplicate by phase solubility techniques. Saturated mixtures of the compound were prepared by adding excess starting material to 4 mL vials containing 2 mL of deionized water. They were allowed to equilibrate for 24 h using mild agitation before recording the pH. The clear solution was separated from the solids by filtration with a Cytiva Whatman Mini-Uniprep polypropylene 0.45 μm filter device and diluted to an appropriate analytical concentration where needed. The sample was then analyzed by HPLC, and the solubility was determined by integrating the area of the peak of interest against a standard curve. The solids were also analyzed by XRPD to record the crystal modification obtained.
Solubility data for dithio-CN03
Table S1: Aqueous solubility at room temperature
Sample mg / mL pH of mixture […]
(1 picture or pasted object on this page, not shown here)

[8] = tested on: 661W-A11 cells stressed with zaprinast; assay: Cell death TUNEL assay in cells stressed with zaprinast; assay type: cell-based, mouse; conditions: 50 μM compound, 200 μM zaprinast for 48 h
Method: Viability assay cannot discriminate between protection from cell death and possible increased proliferation induced by the treatment. To discriminate between these two responses, we analyzed cell death by the TUNEL assay that detects dying cells based on fragmented chromatin. The TUNEL assay confirmed data obtained with the MTT assay (Figure 3B,C).
as §1
661W-A11 cells were seeded in 24-well plates at a density of 20,000 cells/well. After treatments, cells were fixed with 2% paraformaldehyde for 10 min and permeabilized with 1 M Na^+ citrate and 0.1% Triton X-100 on ice for 2 min. Cells were incubated with TUNEL solution “In situ Cell Death Detection Kit” TMR Red (Roche) for 30 min at 37 °C, and cell nuclei were stained with 0.1 μg/mL 4′,6-diamidin-2-fenilindolo (DAPI). […] The quantification of percentage of dead cells was based on the ratio of TUNEL-labeled cells on the total number of cells (DAPI-labeled).

[9] = tested on: photoreceptor cells of murine models of RP; set-up: method as in PMID 29531030; conditions: in vivo delivered; cited from earlier work
[10] = tested on: CNGC; set-up: method as in PMID 29531030; conditions: in vitro and in vivo; cited from earlier work
[11] = tested on: PKG; set-up: method as in PMID 29531030; conditions: in vitro and in vivo; cited from earlier work
[12] = saturated aqueous mixture, room temperature

CCCOc1ccccc1-c1nc2nn[nH]c2c(=O)[nH]1 [zaprinast]
Ki [1]: 30 nM

CCN(CC)CC.O=c1c2nc(Br)n([C@@H]3O[C@@H]4COP(=S)(S)O[C@H]4[C@H]3O)c2nc2[nH]c(-c3ccccc3)cn12 (stereo partly drawn) [dithio-CN03, Triethylammonium 8-Bromo-β-phenyl-1,N^2-ethenoguanosine-3′,5′-cyclicmonophosphorodithioate]
neuroprotective effect, cell death (TUNEL) [2]: significantly better neuroprotective activity
exothermic event on DSC with mass loss on TG, interpreted as thermal decomposition [3]: 170 °C
cell viability reached at the highest doses ([4]; 200 μM zaprinast for 48 h, MTT): ~100%
EC50 ([4]; Mus musculus, 661W-A11, 48 h): 20 µM
toxicity (cell viability, MTT) [5]: lowest toxicity
protective effect on cell viability (MTT) [6]: significantly higher protective effects compared to CN03-Na^+
solubility compared to CN03 ([7]; aqueous): lower solubility
solubility at 24 h ([7]; deionized water, pH 5.6, deionized H2O, room temperature, corresponds to crystal modification II (trihydrate), read-out: aqueous solubility): 1170 µg/mL
solubility at 24 h ([7]; deionized water, pH 5.6, deionized H2O, room temperature, read-out: aqueous solubility): 1800 µM
solubility at 24 h ([7]; deionized water, water, thermodynamic from solid, room temperature, deionized water, 24 h equilibration, read-out: aqueous solubility, single samples 1-4 (Table S1)): 1160 µg/mL
aqueous solubility, single samples 1-4 (Table S1) ([7]; room temperature, deionized water, 24 h equilibration): 1.198 mg/mL and 1.160 mg/mL and 1.169 mg/mL
pH of mixture, Average (Table S1) [7, 12]: 5.6
pH of mixture, single samples 1-4 (Table S1) [7, 12]: 4.7 and 5.6 and 5.9 and 6.3
protection from cell death (TUNEL) [8]: highest neuroprotective activity

O=c1c2nc(Br)n([C@@H]3O[C@@H]4CO[P@](O)(=S)O[C@H]4[C@H]3O)c2nc2[nH]c(-c3ccccc3)cn12 [SP-CN03, Triethylammonium SP-8-Bromo-β-phenyl-1,N^2-ethenoguanosine-3′,5′-cyclicmonophosphorothioate]
neuroprotective effect, cell death (TUNEL) [2]: neuroprotective effect similar to CN03-Na^+
toxicity to photoreceptors ([2]; 50 μM, 24 h): not toxic to photoreceptors
cell viability reached at the highest doses ([4]; 200 μM zaprinast for 48 h, MTT): 70–80%
EC50 ([4]; Mus musculus, 661W-A11, 48 h): 16 µM
protective effect on cell viability (MTT) [6]: increasing cell viability

O=c1c2nc(Br)n([C@@H]3O[C@@H]4CO[P@@](O)(=S)O[C@H]4[C@H]3O)c2nc2[nH]c(-c3ccccc3)cn12 [CN03, RP-8-Br-PET-cGMPS]
preservation of photoreceptor cells [9]: could preserve photoreceptor cells of murine models of RP
block of Ca2+ influx through the CNGC [10]: block Ca^2+ influx through the CNGC
interference with PKG activity [11]: interfere with PKG activity

O=c1c2nc(Br)n([C@@H]3O[C@@H]4COP(=O)(O)O[C@H]4[C@H]3O)c2nc2[nH]c(-c3ccccc3)cn12 [oxo-CN03, Triethylammonium 8-Bromo-β-phenyl-1,N^2-ethenoguanosine-3′,5′-cyclicmonophosphate]
protective effect on cell viability (MTT) [6]: All CN03 compounds, except oxo-CN03, were able to improve cell viability
protection from cell death (TUNEL) [8]: failure of oxo-CN03 to protect

O=c1c2nc(Br)n([C@@H]3O[C@@H]4CO[P@@]([O-])(=S)O[C@H]4[C@H]3O)c2nc2[nH]c(-c3ccccc3)cn12.[Na+] [CN03-Na^+]
neuroprotective effect, cell death (TUNEL) [2]: decreased the percentage of cell death
cell viability reached at the highest doses [4]: 70–80%
EC50 ([4]; 200 μM zaprinast for 48 h, doses 1 μM to 1 mM, MTT): 16.9 µM
